Data: patent publication US11932611B1, “3-(5-(3-fluorophenyl)-4-phenyl-4H-1,2,4-triazol-3-ylthio)propanoic acid as an antimicrobial compound” (KING FAISAL UNIVERSITY, priority 2023, dated 2024)

Legend:
Format in all cases: cell-based
Pseudomonas aeruginosa = assay: Agar plate disc-diffusion method, antibacterial inhibition zone; conditions: nutrient agar, 37° C., 48 h
Procedure: (§1) The agar plate disc-diffusion method was applied. […] The discs were then placed onto the surface of agar plates (nutrient agar for bacteria and Sabouraud's dextrose agar for fungi) seeded with the test organism. Each plate contained 15 mL of the agar medium, previously seeded with 0.2 mL of the broth culture of each organism pregrown for 18 h. The plates were incubated at 37° C. for 48 h, and 72 h for fungi. The inhibition zones was measured in mm. Discs impregnated with DMSO were used as a control, and its inhibition zone was subtracted from the tested compound actual inhibition zone.

Staphylococcus aureus = assay: as above; conditions: nutrient agar, 37° C., 48 h
Procedure: as §1

Escherichia coli = assay: as above; conditions: nutrient agar, 37° C., 48 h
Procedure: as §1

Bacillus cereus = assay: as above; conditions: nutrient agar, 37° C., 48 h
Procedure: as §1

Aspergillus flavus = assay: Agar plate disc-diffusion method, antifungal inhibition zone; conditions: Sabouraud's dextrose agar, 72 h
Procedure: as §1

[1] = test system: Chrysosporium keratinophilum; assay: as above; conditions: Sabouraud's dextrose agar, 72 h
Procedure: as §1

[2] = A = concentration of comp. = 10,000 μL
[3] = B = concentration of comp. = 30,000 μL
[4] = C = concentration of comp. = 50,000 μL

O=C(O)CCSc1nnc(-c2cccc(F)c2)n1-c1ccccc1 [III, 3-(5-(3-fluorophenyl)-4-phenyl-4H-1,2,4-triazol-3-ylthio)propanoic acid]
inhibition zone, Pseudomonas aeruginosa, A (Pseudomonas aeruginosa; [2]): 22 mm | inhibition zone, Pseudomonas aeruginosa, B (Pseudomonas aeruginosa; [3]): 24 mm | inhibition zone, Pseudomonas aeruginosa, C (Pseudomonas aeruginosa; [4]): 41 mm | inhibition zone, Staphylococcus aureus, A (Staphylococcus aureus; [2]): 27 mm | inhibition zone, Staphylococcus aureus, B (Staphylococcus aureus; [3]): 34 mm | inhibition zone, Staphylococcus aureus, C (Staphylococcus aureus; [4]): 45 mm | inhibition zone, Escherichia coli, A (Escherichia coli; [2]): 25 mm | inhibition zone, Escherichia coli, B (Escherichia coli; [3]): 31 mm | inhibition zone, Escherichia coli, C (Escherichia coli; [4]): 45 mm | inhibition zone, Bacillus Cereus, A (Bacillus cereus; [2]): 24 mm | inhibition zone, Bacillus Cereus, B (Bacillus cereus; [3]): 27 mm | inhibition zone, Bacillus Cereus, C (Bacillus cereus; [4]): 38 mm | inhibition zone, Aspergillus flavus, A (Aspergillus flavus; [2]): 19 mm | inhibition zone, Aspergillus flavus, B (Aspergillus flavus; [3]): 25 mm | inhibition zone, Aspergillus flavus, C (Aspergillus flavus; [4]): 36 mm | inhibition zone, Chrysosporium keratinophilum, A [1, 2]: 23 mm | inhibition zone, Chrysosporium keratinophilum, B [1, 3]: 26 mm | inhibition zone, Chrysosporium keratinophilum, C [1, 4]: 43 mm
